Data taken from patent publication US5262521A (SRI International, priority 1991, dated 1993).
Like-named read-outs stand apart in the source and are kept apart here. Blank lines part the entries; values can stand above or below the compound they belong to. *1 amine or outer side, *2 acyl side, *3 side chain or, on linkers, in order; H or OH if unused. Where a SMILES comes first, the peptide text is derived from it. [ ]: non-standard residue; d: D form. The star is where a group is joined. Sta = CC(C)C[C@H](N)[C@@H](O)CC(=O)O; Isovaleryl = CC(C)CC(=O)*; CO = O=C([*:1])[*:2]

System: atrial peptide-degrading enzyme (ADE)
Experiment: Inhibition of ADE activity (AcAPI production from 50 μM AcAPII, HPLC)
Type: biochemical, bovine
Experimental: The concentration of enzyme and AcAPII were chosen so that approximately 80% of the AcAPII was degraded in the absence of inhibitor. The production of AcAPI was determined by integration of the AcI peak, and percent inhibition by the inhibitors was calculated.
(e.) Enzyme Inhibitor Testing: To further characterize ADE, the extent of inhibition by several known peptidase inhibitors was determined.

[1] = inhibitor 5 mM, 50 μM AcAPII, 1 hour, 37° C.
[2] = inhibitor 0.1 mM, 50 μM AcAPII, 1 hour, 37° C.
[3] = inhibitor 1 mM, 50 μM AcAPII, 1 hour, 37° C.

- ADE activity after dialysis of the enzyme (enzyme dialyzed against 1 mM EDTA): totally abolished
- Percent Inhibition of ADE [1]: 20%
SMILES: O=C(O)CN(CCN(CC(=O)O)CC(=O)O)CC(=O)O [EDTA, Ethylenediamine tetraacetic acid]

SMILES: CC(=O)N[C@@H](CC(C)C)C(=O)N[C@@H](CC(C)C)C(=O)N[C@H](C=O)CCCNC(=N)N [Leupeptine]
- Inhibition of ADE, in words: slight inhibition
- Percent Inhibition of ADE [2]: 33%

- Percent Inhibition of ADE [2]: 10%
SMILES: CC(C)C[C@H](NC(=O)N[C@H](C(=O)N[C@@H](CCC(N)=O)C(=O)N[C@@H](C)C=O)[C@@H]1CCNC(=N)N1)C(=O)O [Elastinal]

SMILES: O=S(=O)(O)c1cc[c]([Hg][OH])cc1 [Hydroxymercuriphenyl sulfonic acid]
- Percent Inhibition of ADE [3]: 100%

SMILES: O=S(=O)(F)Cc1ccccc1 [PMSF, Phenylmethylsulfonyl fluoride]
- Percent Inhibition of ADE [3]: 8%

- Inhibition of ADE, in words: inhibited
- Percent Inhibition of ADE [1]: 97%
- ADE activity inhibited by (text summary of Table 4): ~100%
SMILES: CCN1C(=O)C=CC1=O [NEM, N-ethylmaleimide]

SMILES: O=C(O)c1cc[c]([Hg][Cl])cc1 [p-Chloromercuribenzoate]
- Percent Inhibition of ADE [3]: 95%

- % Inhibition At 0.1 mM (Table 10): 28%
SMILES: CC(C)C[C@H](NC(=O)[C@@H](N)CO)C(=O)N[C@@H](CCCNC(=N)N)C(=O)N[C@@H](CCCNC(=N)N)C(=O)N[C@@H](CO)C(=O)N[C@@H](CO)C(=O)N[C@H](C)C(=O)NCC(=O)N[C@H](C)C(=O)N[C@@H](CC(N)=O)C(=O)N[C@@H](CO)C(=O)N[C@H](Cc1ccccc1)C(=O)N[C@@H](CCCNC(=N)N)C(=O)N[C@@H](Cc1ccc(O)cc1)C(N)=O [(II), Ser-Leu-Arg-Arg-Ser-Ser-DAla-Gly-DAla-Asn-Ser-DPhe-Arg-Tyr-NH2] (H-SLRRSS[dA]G[dA]NS[dF]RY-NH2)

- IC50 (Table 10): 32.5 µM
- % Inhibition At 0.1 mM (Table 10): 68%
SMILES: CC(C)C[C@H](NC(=O)[C@@H](N)CO)C(=O)N[C@@H](CCCNC(=N)N)C(=O)N[C@@H](CCCNC(=N)N)C(=O)N[C@@H](CO)C(=O)N[C@@H](CO)C(=O)N[C@H](C)C(=O)NCC(=O)N[C@H](C)C(=O)N[C@@H](CC(N)=O)C(=O)N[C@@H](CS)C(=O)N[C@@H](Cc1ccccc1)C(=O)N[C@@H](CCCNC(=N)N)C(=O)N[C@@H](Cc1ccc(O)cc1)C(N)=O [(IV), Ser-Leu-Arg-Arg-Ser-Ser-DAla-Gly-DAla-Asn-Cys-Phe-Arg-Tyr-NH2] (H-SLRRSS[dA]G[dA]NCFRY-NH2)

SMILES: NC(=O)CI [Iodoacetamide]
- Percent Inhibition of ADE [3]: 10%

- Inhibition of ADE, in words: slight inhibition
- Percent Inhibition of ADE (inhibitor 0.2 mM, 50 μM AcAPII, 1 hour, 37° C.): 33%
SMILES: C[C@H](CS)C(=O)N1CCC[C@H]1C(=O)O [Captopril]

SMILES: CC(C)C[C@H](NC(=O)[C@@H](NC(=O)N[C@@H](Cc1ccccc1)C(=O)O)[C@@H]1CCN=C(N)N1)C(=O)N[C@H](C=O)Cc1ccccc1 [Chymostatin]
- Percent Inhibition of ADE [2]: 8%

- % Inhibition At 0.1 mM (Table 10): 74%
SMILES: CC(C)C[C@H](NC(=O)[C@@H](N)CO)C(=O)N[C@@H](CCCNC(=N)N)C(=O)N[C@@H](CCCNC(=N)N)C(=O)N[C@@H](CO)C(=O)N[C@@H](CO)C(=O)N[C@H](C)C(=O)NCC(=O)N[C@H](C)C(=O)N[C@@H](CC(N)=O)C(=O)N[C@@H](CS)C(=O)N[C@H](Cc1ccccc1)C(=O)N[C@@H](CCCNC(=N)N)C(N)=O [(VI), Ser-Leu-Arg-Arg-Ser-Ser-DAla-Gly-DAla-Asn-Cys-DPhe-Arg-NH2] (H-SLRRSS[dA]G[dA]NC[dF]R-NH2)

- Percent Inhibition of ADE (inhibitor 0.01 mM, 50 μM AcAPII, 1 hour, 37° C.): 0%
SMILES: CC(C)CC(=O)N[C@H](C(=O)N[C@H](C(=O)N[C@@H](CC(C)C)[C@@H](O)CC(=O)N[C@@H](C)C(=O)N[C@@H](CC(C)C)[C@@H](O)CC(=O)O)C(C)C)C(C)C [Pepstatin] (Isovaleryl-VV[Sta]A[Sta]-OH)

- Inhibition of ADE, in words: not inhibited
- Percent Inhibition of ADE (inhibitor 0.001 mM, 50 μM AcAPII, 1 hour, 37° C.): 0%
SMILES: CC(C)C[C@H](NP(=O)(O)O[C@@H]1O[C@@H](C)[C@H](O)[C@@H](O)[C@H]1O)C(=O)N[C@@H](Cc1c[nH]c2ccccc12)C(=O)O [Phosphoramidon]

SMILES: O=C(O)CI [Iodoacetic acid]
- Percent Inhibition of ADE: 0

- Percent Inhibition of ADE [2]: 0%
SMILES: CC(C)C[C@H](NC(=O)[C@H]1O[C@@H]1C(=O)O)C(=O)NCCCCN=C(N)N (relative stereo) [E64, trans-Epoxysuccinyl-L-leucylamido-(4-guanidino)butane]

- % Inhibition At 0.1 mM (Table 10): 46%
SMILES: CC(C)C[C@H](NC(=O)[C@@H](N)CO)C(=O)N[C@@H](CCCNC(=N)N)C(=O)N[C@@H](CCCNC(=N)N)C(=O)N[C@@H](CO)C(=O)N[C@@H](CO)C(=O)N[C@H](C)C(=O)NCC(=O)N[C@H](C)C(=O)N[C@@H](CC(N)=O)C(=O)N[C@@H](CO)C(=O)N[C@@H](Cc1ccccc1)C(=O)N[C@@H](CCCNC(=N)N)C(=O)N[C@@H](Cc1ccc(O)cc1)C(N)=O [(I), Ser-Leu-Arg-Arg-Ser-Ser-DAla-Gly-DAla-Asn-Ser-Phe-Arg-Tyr-NH2] (H-SLRRSS[dA]G[dA]NSFRY-NH2)

SMILES: CC(C)[C@H](NC(=O)[C@H](CCCNC(=N)N)NC(=O)N[C@@H](Cc1ccccc1)C(=O)O)C(=O)N[C@H](C=O)CCCNC(=N)N [Antipain] ({Phe-CO}-Arg-Val-Arg-aldehyde)
- Percent Inhibition of ADE [2]: 0%

- % Inhibition At 0.1 mM (Table 10): 22%
SMILES: CC(C)C[C@H](NC(=O)[C@@H](N)CO)C(=O)N[C@@H](CCCNC(=N)N)C(=O)N[C@@H](CCCNC(=N)N)C(=O)N[C@@H](CO)C(=O)N[C@@H](CO)C(=O)N[C@H](C)C(=O)NCC(=O)N[C@H](C)C(=O)N[C@@H](CC(N)=O)C(=O)N[C@H](CO)C(=O)N[C@@H](Cc1ccccc1)C(=O)N[C@@H](CCCNC(=N)N)C(=O)N[C@@H](Cc1ccc(O)cc1)C(N)=O [(III), Ser-Leu-Arg-Arg-Ser-Ser-DAla-Gly-DAla-Asn-DSer-Phe-Arg-Tyr-NH2] (H-SLRRSS[dA]G[dA]N[dS]FRY-NH2)

- Percent Inhibition of ADE [3]: 72%
SMILES: c1cnc2c(c1)ccc1cccnc12 [1,10-Phenanthroline]
- Inhibition of ADE, in words: inhibited activity to a slightly lesser extent
